Results from patent publication US20230002397A1, “SMALL MOLECULE DEGRADERS OF HELIOS AND METODS OF USE” (DANA-FARBER CANCER INSTITUTE, INC., priority 2019, published 2023).

Molecular target: T1, IKZF2 (Homo sapiens, UniProt Q96SW2+Q9UKS7)
T1 construct: CRISPR/Cas9—mediated insertion of the HiBiT peptide tag (Promega™) to the N-terminus of the IKZF2 gene locus; endogenous in cells; host or cells: MOLT4 cells, with CRISPR/Cas9 knock-in of HiBiT at the endogenous IKZF2 locus
Assay: HiBit-IKZF2 assay (HiBiT-Helios degradation in MOLT4 cells)
Assay type: cell-based
Conditions: for Dmax: MOLT-4, extent of degradation from highest to lowest concentration, 10 μM to 0.00026 μM, read-out: Dmax; for DC50: concentration at which 50% of HiBiT-Helios degradation was achieved
In short: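 MOLT4 cells carried an endogenous N-terminal HiBiT tag on IKZF2, knocked in by CRISPR. Cells were treated in triplicate at 13 concentrations (10 μM–0.00026 μM), and remaining HiBiT-Helios was read by lytic luminescence at set timepoints. Data were normalized to DMSO to give the 50% degradation concentration, with Dmax taken from the luminescence range.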

T1 sequence (Q9UKS7 whole entry): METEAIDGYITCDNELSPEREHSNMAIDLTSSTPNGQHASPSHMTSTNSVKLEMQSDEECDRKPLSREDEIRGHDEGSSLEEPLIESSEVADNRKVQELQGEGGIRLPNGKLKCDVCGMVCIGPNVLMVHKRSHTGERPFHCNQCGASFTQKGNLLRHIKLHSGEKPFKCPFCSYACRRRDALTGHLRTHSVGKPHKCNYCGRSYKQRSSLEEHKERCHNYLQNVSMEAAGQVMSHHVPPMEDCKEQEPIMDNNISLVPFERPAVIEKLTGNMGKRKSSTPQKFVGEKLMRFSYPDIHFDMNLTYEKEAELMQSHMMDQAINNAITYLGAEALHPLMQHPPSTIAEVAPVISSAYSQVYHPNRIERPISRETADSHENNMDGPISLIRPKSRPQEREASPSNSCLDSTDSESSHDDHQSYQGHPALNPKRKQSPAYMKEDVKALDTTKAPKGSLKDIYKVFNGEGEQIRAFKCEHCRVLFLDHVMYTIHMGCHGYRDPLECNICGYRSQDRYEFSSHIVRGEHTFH
T1 sequence (Q96SW2 whole entry): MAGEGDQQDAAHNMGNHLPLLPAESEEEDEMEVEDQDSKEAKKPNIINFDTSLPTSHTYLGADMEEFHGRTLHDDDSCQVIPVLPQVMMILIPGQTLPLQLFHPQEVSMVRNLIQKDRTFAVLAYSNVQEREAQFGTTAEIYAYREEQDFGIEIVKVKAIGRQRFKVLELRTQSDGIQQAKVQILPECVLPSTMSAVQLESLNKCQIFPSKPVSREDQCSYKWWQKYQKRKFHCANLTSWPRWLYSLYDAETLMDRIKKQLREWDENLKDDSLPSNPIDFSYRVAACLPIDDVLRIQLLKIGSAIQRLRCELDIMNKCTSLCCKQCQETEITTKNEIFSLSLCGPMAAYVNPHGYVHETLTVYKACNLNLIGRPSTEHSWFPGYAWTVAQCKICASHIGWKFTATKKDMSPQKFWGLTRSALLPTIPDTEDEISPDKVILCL
T1 sequence (Q16531 whole entry partner): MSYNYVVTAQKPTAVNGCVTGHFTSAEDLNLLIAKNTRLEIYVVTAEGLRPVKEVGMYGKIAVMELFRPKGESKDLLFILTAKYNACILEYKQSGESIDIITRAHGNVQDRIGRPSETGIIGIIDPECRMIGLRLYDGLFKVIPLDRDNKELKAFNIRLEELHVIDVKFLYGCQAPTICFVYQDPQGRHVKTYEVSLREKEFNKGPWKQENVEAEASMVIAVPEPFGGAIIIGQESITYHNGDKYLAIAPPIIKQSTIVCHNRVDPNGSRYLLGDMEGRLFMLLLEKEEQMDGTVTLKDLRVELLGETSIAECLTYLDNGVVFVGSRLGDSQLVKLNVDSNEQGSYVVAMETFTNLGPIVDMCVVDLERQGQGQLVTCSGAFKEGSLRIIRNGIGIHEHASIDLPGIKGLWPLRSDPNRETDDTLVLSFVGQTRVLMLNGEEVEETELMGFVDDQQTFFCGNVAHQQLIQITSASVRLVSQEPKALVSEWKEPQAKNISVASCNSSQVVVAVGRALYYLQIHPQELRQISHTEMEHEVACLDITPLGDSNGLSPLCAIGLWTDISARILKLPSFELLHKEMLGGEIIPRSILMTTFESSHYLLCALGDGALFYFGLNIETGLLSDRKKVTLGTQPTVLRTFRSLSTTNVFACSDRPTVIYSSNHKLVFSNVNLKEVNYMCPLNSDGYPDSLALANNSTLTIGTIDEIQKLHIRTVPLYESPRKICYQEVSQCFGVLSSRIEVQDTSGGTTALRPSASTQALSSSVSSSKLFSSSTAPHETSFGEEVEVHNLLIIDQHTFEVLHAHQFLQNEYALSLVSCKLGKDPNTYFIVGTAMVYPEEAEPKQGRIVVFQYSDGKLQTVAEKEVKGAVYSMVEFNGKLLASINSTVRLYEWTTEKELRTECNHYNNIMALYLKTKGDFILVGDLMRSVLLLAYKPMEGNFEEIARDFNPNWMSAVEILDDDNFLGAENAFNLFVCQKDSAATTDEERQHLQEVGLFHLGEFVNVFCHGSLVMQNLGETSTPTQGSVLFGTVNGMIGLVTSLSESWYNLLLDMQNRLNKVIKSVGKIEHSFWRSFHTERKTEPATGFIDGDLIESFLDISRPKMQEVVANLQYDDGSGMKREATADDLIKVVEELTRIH

With `O=C1CCC(N2Cc3cc(C4CCN(Cc5ccc6c(c5)C(=O)N(c5cccc(F)c5)C6)CC4)ccc3C2=O)C(=O)N1` (stereo not shown) [Compound 175] the Dmax was 50 to 70% and the DC50 was < 10 nM.
For `N#CC1(COc2ccc(CN3CCC(c4ccc5c(c4)CN(C4CCC(=O)NC4=O)C5=O)CC3)cc2)CC1` (stereo not shown) [Compound 45, 1-((4-((4-(2-(2,6-dioxopiperidin-3-yl)-1-oxoisoindolin-5-yl)piperidin-1-yl)methyl)phenoxy)methyl)cyclopropane-1-carbonitrile], the Dmax was 50 to 70% and the DC50 was 10 to 30 nM.
For `O=C1CCC(N2Cc3cc(C4(O)CCN(Cc5ccccc5F)CC4)ccc3C2=O)C(=O)N1` (stereo not shown) [Compound 256], the Dmax was > 70% and the DC50 was < 10 nM.
With `O=C1CCC(N2Cc3cc(C4(O)CCN(Cc5ccc6c(c5)OC(F)(F)O6)CC4)ccc3C2=O)C(=O)N1` (stereo not shown) [Compound 271] the Dmax was > 70% and the DC50 was < 10 nM.
For `O=C1CCC(N2Cc3cc(C4(O)CCN(Cc5ccccc5-c5ccccc5)CC4)ccc3C2=O)C(=O)N1` (stereo not shown) [Compound 274], the Dmax was 50 to 70% and the DC50 was < 10 nM.
With `O=C1CCC(N2Cc3cc(C4(O)CCN(Cc5ccc6ncsc6c5)CC4)ccc3C2=O)C(=O)N1` (stereo not shown) [Compound 242] the Dmax was > 70% and the DC50 was < 10 nM.
`O=C1CCC(N2Cc3cc(C4(O)CCN(Cc5ccc(F)c(Nc6ccccc6)n5)CC4)ccc3C2=O)C(=O)N1` (stereo not shown) [Compound 197] was tested, and the Dmax was 50 to 70% and the DC50 was < 10 nM.
With `O=C1CCC(N2Cc3cc(C4CCN(Cc5ccc6c(c5)C(=O)N(c5ccccc5)CCC6)CC4)ccc3C2=O)C(=O)N1` (stereo not shown) [Compound 183, 3-(1-oxo-5-(1-((1-oxo-2-phenyl-2,3,4,5-tetrahydro-1H-benzo[c]azepin-8-yl)methyl)piperidin-4-yl)isoindolin-2-yl)piperidine-2,6-dione] the Dmax was 50 to 70% and the DC50 was < 10 nM.
With `N#Cc1ccccc1CN1CCC(O)(c2ccc3c(c2)CN(C2CCC(=O)NC2=O)C3=O)CC1` (stereo not shown) [Compound 237] the Dmax was 50 to 70% and the DC50 was < 10 nM.
`O=C1CCC(N2Cc3cc(C4CCN(Cc5ccc6c(c5)C(=O)N(c5cnsc5)C6)CC4)ccc3C2=O)C(=O)N1` (stereo not shown) [Compound 222] was tested, and the Dmax was 50 to 70% and the DC50 was < 10 nM.
With `O=C1CCC(N2Cc3cc(C4CCN(Cc5ccc6c(c5)C(=O)N(c5ncccn5)C6)CC4)ccc3C2=O)C(=O)N1` (stereo not shown) [Compound 178] the Dmax was 30 to 50% and the DC50 was 10 to 30 nM.
`O=C1CCC(N2Cc3cc(C4CCN(Cc5ccc(S(=O)(=O)Nc6ccccn6)cc5)CC4)ccc3C2=O)C(=O)N1` (stereo not shown) [Compound 157] gave a Dmax of 50 to 70% and a DC50 of 30 to 150 nM.
In the case of `O=C1CCC(N2Cc3cc(C4CCN(Cc5ccc6c(c5)C(=O)N(c5ccc(F)cc5)C6)CC4)ccc3C2=O)C(=O)N1` (stereo not shown) [Compound 180], the Dmax is reported as 50 to 70% and the DC50 is reported as 10 to 30 nM.
With `O=C1CCC(N2Cc3cc(C4(O)CCN(Cc5ccccc5Cl)CC4)ccc3C2=O)C(=O)N1` (stereo not shown) [Compound 267] the Dmax was > 70% and the DC50 was < 10 nM.
With `N#Cc1ccc(N2Cc3ccc(CN4CCC(c5ccc6c(c5)CN(C5CCC(=O)NC5=O)C6=O)CC4)cc3C2=O)c(F)c1` (stereo not shown) [Compound 177] the Dmax was 50 to 70% and the DC50 was < 10 nM.
For `O=C1CCC(N2Cc3cc(C4(O)CCN(Cc5ccnc(Nc6ccccc6)c5F)CC4)ccc3C2=O)C(=O)N1` (stereo not shown) [Compound 198], the Dmax was > 70% and the DC50 was < 10 nM.
For `O=C1CCC(N2Cc3cc(C4(O)CCN(Cc5cccc(-c6ccccc6)c5)CC4)ccc3C2=O)C(=O)N1` (stereo not shown) [Compound 273], the Dmax was > 70% and the DC50 was < 10 nM.
For `O=C1CCC(N2Cc3cc(C4(O)CCN(Cc5cccc(F)c5)CC4)ccc3C2=O)C(=O)N1` (stereo not shown) [Compound 257], the Dmax was > 70% and the DC50 was < 10 nM.
Compound `O=C1CCC(N2Cc3cc(C4CCN(Cc5ccnc(Oc6ccccc6)c5)CC4)ccc3C2=O)C(=O)N1` (stereo not shown) [Compound 43, 3-(1-oxo-5-(1-((2-phenoxypyridin-4-yl)methyl)piperidin-4-yl)isoindolin-2-yl)piperidine-2,6-dione] has a Dmax of 50 to 70% and a DC50 of 30 to 150 nM.
Compound `O=C1CCC(N2Cc3cc(C4CCN(Cc5ccccc5C(=O)N5CC6C(C5)C6(F)F)CC4)ccc3C2=O)C(=O)N1` (stereo not shown) [Compound 111] has a Dmax of 30 to 50% and a DC50 of 30 to 150 nM.
With `O=C1CCC(N2Cc3cc(C4CCN(Cc5ccc(F)c(Nc6ccccc6)n5)CC4)ccc3C2=O)C(=O)N1` (stereo not shown) [Compound 187] the Dmax was 50 to 70% and the DC50 was 10 to 30 nM.
In the case of `Cc1cnc(Nc2cccc(CN3CCC(c4ccc5c(c4)CN(C4CCC(=O)NC4=O)C5=O)CC3)c2)nc1` (stereo not shown) [Compound 228], the Dmax is reported as 50 to 70% and the DC50 is reported as 10 to 30 nM.
In the case of `O=C1CCC(N2Cc3cc(C4CCN(Cc5cccc(Nc6ncccn6)c5F)CC4)ccc3C2=O)C(=O)N1` (stereo not shown) [Compound 188], the Dmax is reported as 50 to 70% and the DC50 is reported as < 10 nM.
`O=C1CCC(N2Cc3cc(C4(O)CCN(Cc5ccc6c(c5)C(=O)N(c5ccns5)C6)CC4)ccc3C2=O)C(=O)N1` (stereo not shown) [Compound 225] was tested, and the Dmax was > 70% and the DC50 was < 10 nM.
With `COc1ccccc1CN1CCC(O)(c2ccc3c(c2)CN(C2CCC(=O)NC2=O)C3=O)CC1` (stereo not shown) [Compound 263] the Dmax was > 70% and the DC50 was < 10 nM.
With `O=C1CCC(N2Cc3cc(C4(O)CCN(Cc5ccc(F)c(Cl)c5)CC4)ccc3C2=O)C(=O)N1` (stereo not shown) [Compound 255] the Dmax was > 70% and the DC50 was < 10 nM.
